Assay results as given in patent US11753407B2, “Compounds for treating spinal muscular atrophy” (PTC Therapeutics, Inc., priority 2012, dated 2023).

Assays:
[1] = test system: Smn protein in SMA patient fibroblast cells (GM03813); assay: Smn protein assay in cultured cells (SMN HTRF); format: cell-based, human; settings: SMA patient fibroblast cells, 48 hours; for EC1.5x for Smn protein expression: 7-point concentration curve, SMN HTRF, concentration producing 1.5 times Smn protein vs DMSO vehicle control; for maximum fold (Fold) increase of Smn protein: 7-point concentration data, fold relative to vehicle control
Method in brief: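 Cells were cultured 72 h, seeded at 5,000/well and dosed with seven concentrations (3.16-fold apart) for 48 h. HTRF on lysates, read at 665 and 620 nm, gave blank-corrected ΔF values relative to DMSO. Potency is reported as EC1.5×, efficacy as maximal fold Smn increase.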

[2] = test system: SMN2 minigene mRNA (SMN2-A minigene) in HEK293H cells; assay: SMN2 minigene mRNA splicing RT-qPCR assay in cultured cells; format: cell-based, human; settings: Homo sapiens, HEK293-H; concentration increasing full length SMN2 mRNA 1.5-fold relative to vehicle-treated cells; HEK293H cells with SMN2-A minigene, 24 hours, 7-point concentration data; read-out: EC1.5x for production of full length SMN2 mRNA
Method in brief: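 EC1.5× values derive from a 24 h treatment of SMN2-A minigene HEK293H cells and GAPDH-normalized RT-qPCR of exon 7-included minigene mRNA relative to vehicle-treated cells.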

| melting point | Compound | EC1.5x for Smn protein expression [1] | maximum fold (Fold) increase of Smn protein [1] | EC (1.5-fold increase) [2] |
| --- | --- | --- | --- | --- |
| 254 to 260 °C | Cc1cn2nc(-c3cc(=O)n4cc(N5C[C@@H](C)N(C)[C@@H](C)C5)ccc4n3)cc2c(C)n1 [Compound 259, 2-(4,6-dimethylpyrazolo[1,5-a]pyrazin-2-yl)-7-[(3R,5S)-3,4,5-trimethylpiperazin-1-yl]-4H-pyrido[1,2-a]pyrimidin-4-one] | *** (an EC1.5× between >0.3 μM and ≤1 μM is indicated by three stars (***)) | **** (a fold increase between >1.5 and ≤1.65 is indicated by four stars (****)) | < 0.1 µM |
| 212 to 218 °C | COc1ccc(-c2cc(=O)n3cc(N4C[C@H]5CN(C)C[C@H]5C4)cc(C)c3n2)cc1OC [Compound 260, 2-(3,4-dimethoxyphenyl)-9-methyl-7-[(3aR,6aS)-5-methylhexahydropyrrolo[3,4-c]pyrrol-2(1H)-yl]-4H-pyrido[1,2-a]pyrimidin-4-one] | ** (an EC1.5× between >1 μM and ≤3 μM is indicated by two stars (**)) | *** (a fold increase between >1.35 and ≤1.5 is indicated by three stars (***)) | 0.1 to 0.3 µM |
| 167 to 171 °C | COc1ccc(-c2cc(=O)n3cc(N4CCC(N(C)C)CC4)cc(C)c3n2)cc1OC [Compound 261, 2-(3,4-dimethoxyphenyl)-7-[4-(dimethylamino)piperidin-1-yl]-9-methyl-4H-pyrido[1,2-a]pyrimidin-4-one] | **** (an EC1.5x≤0.3 μM is indicated by four stars (****)) | **** (a fold increase between >1.5 and ≤1.65 is indicated by four stars (****)) | < 0.1 µM |
| 203 to 207 °C | Cc1nc2ccc(-c3cc(=O)n4cc(N5CC[C@@H](N(C)C)C5)ccc4n3)cc2o1 [Compound 264, 7-[(3R)-3-(dimethylamino)pyrrolidin-1-yl]-2-(2-methyl-1,3-benzoxazol-6-yl)-4H-pyrido[1,2-a]pyrimidin-4-one] | **** (an EC1.5x≤0.3 μM is indicated by four stars (****)) | ***** (a fold increase >1.65 is indicated by five stars (*****)) | < 0.1 µM |
| 170 to 175 °C | CCc1nc2ccc(-c3cc(=O)n4cc(N5CCNCC5)ccc4n3)cc2o1 [Compound 265, 2-(2-ethyl-1,3-benzoxazol-6-yl)-7-(piperazin-1-yl)-4H-pyrido[1,2-a]pyrimidin-4-one] |  | *** (a fold increase between >1.35 and ≤1.5 is indicated by three stars (***)) | 1 to 3 µM |
| 168 to 170 °C | CCc1nc2ccc(-c3cc(=O)n4cc(N5CCN[C@@H](C)C5)ccc4n3)cc2o1 [Compound 266, 2-(2-ethyl-1,3-benzoxazol-6-yl)-7-[(3S)-3-methylpiperazin-1-yl]-4H-pyrido[1,2-a]pyrimidin-4-one] |  | ** (a fold increase between >1.2 and ≤1.35 is indicated by two stars (**)) | 1 to 3 µM |
| 200 to 204 °C | Cc1nc2ccc(-c3cc(=O)n4cc(N5C[C@H]6CN(C)C[C@H]6C5)ccc4n3)cc2o1 [Compound 267, 2-(2-methyl-1,3-benzoxazol-6-yl)-7-[(3aR,6aS)-5-methylhexahydropyrrolo[3,4-c]pyrrol-2(1H)-yl]-4H-pyrido[1,2-a]pyrimidin-4-one] | **** (an EC1.5x≤0.3 μM is indicated by four stars (****)) | ***** (a fold increase >1.65 is indicated by five stars (*****)) | < 0.1 µM |

| Compound | melting point | EC1.5x for Smn protein expression [1] | maximum fold (Fold) increase of Smn protein [1] | EC (1.5-fold increase) [2] |
| --- | --- | --- | --- | --- |
| COc1ccc(-c2cc(=O)n3cc(C4=C[C@H]5CC[C@@H](C4)N5)ccc3n2)cc1OC [Compound 262, 7-[(1R,5S)-8-azabicyclo[3.2.1]oct-2-en-3-yl]-2-(3,4-dimethoxyphenyl)-4H-pyrido[1,2-a]pyrimidin-4-one] | 191 to 194 °C | *** (an EC1.5× between >0.3 μM and ≤1 μM is indicated by three stars (***)) | ***** (a fold increase >1.65 is indicated by five stars (*****)) | 0.1 to 0.3 µM |
